# In paper PMC12115217, “3,3′-((3-Hydroxyphenyl)azanediyl)dipropionic Acid Derivatives as a Promising Scaffold Against Drug-Resistant Pathogens and Chemotherapy-Resistant Cancer” (Pathogens, 2025):
# Entries after “also recorded” stand apart in the source; their conditions may differ. Structures can show the parent of a compound that is named as a salt.
# Tests used:
# A. baumannii AR-0273 = assay: Broth microdilution MIC, A. baumannii AR-0273; format: cell-based, Acinetobacter baumannii; details: OXA-23, CAMHB; for MIC: Acinetobacter baumannii, AR0273, 18 ± 2 h, read-out: minimal inhibitory concentration (MIC) A. baumannii AR-0273
# Source text: (§1) The multidrug-resistant S. aureus strain TCH 1516 [USA 300-HOU-MR] was obtained from the American Type Culture Collection (ATCC, Manassas, VA, USA) (Table 1). E. faecalis AR-0671, multidrug-resistant E. coli AR-0001, K. pneumoniae AR-0003, P. aeruginosa AR-1114, and A. baumannii AR-0273 strains were acquired from the Centers for Disease Control and Prevention (CDC) AR isolate bank (Table 1). Prior to the initiation of this study, all microbial strains were stored in commercial cryopreservation systems at a temperature of −80 °C. The strains were cultivated on Columbia sheep blood agar (Becton Dickinson, Franklin Lakes, NJ, USA) or potato dextrose agar (PDA) for Candida (Becton Dickinson, Franklin Lakes, NJ, USA).
# (§2) The antimicrobial activity of 3-((3-hydroxyphenyl)amino)propanoic acid derivatives was assessed by using the broth microdilution method, following the guidelines outlined by the Clinical Laboratory Standards Institute (CLSI), with modifications. In brief, the compounds were dissolved in dimethyl sulfoxide (DMSO) to attain a final concentration of 25–30 mg/mL. Vancomycin hydrochloride (MedChem express, Cat. No. HY-17362), cefazolin (MedChem express, Cat. No. HY-B1892), and meropenem (MedChem express, Cat. No. HY-13678) were used as control antimicrobial drugs and were dissolved in DMSO as described before. Dilution series were prepared in deep 96-well microplates to achieve a two-fold concentration range of 0.25, 0.5, 1, 2, 4, 8, 16, 32, and 64 µg/mL, utilizing cation-adjusted Mueller–Hinton broth (CAMHB) as the growth medium. The microplates containing the dilution series were then inoculated with fresh cultures of each tested organism to reach a final concentration of 5 × 10^4 CFU (colony-forming units) of the test organism in media containing 1% DMSO and 1× drug concentration, with a volume of 200 µL per well. Wells that were inoculated with medium containing 1% DMSO served as positive controls. Subsequently, the microplates were incubated at 35 ± 1 °C for 18 ± 2 h. Following the incubation period, the plates were examined by using a manual microplate viewer (Sensititre Manual Viewbox, ThermoFisher Scientific, Waltham, MA, USA). […] All experiments were conducted in duplicate with three technical replicates for each condition.
# P. aeruginosa AR-1114 [1] = assay: Broth microdilution MIC, P. aeruginosa AR-1114; format: cell-based; details: Pseudomonas aeruginosa, AR1114; IMP-15; CAMHB, 18 ± 2 h; read-out: minimal inhibitory concentration (MIC) P. aeruginosa AR-1114
# FaDu cells [2] = assay: Superoxide dismutase (SOD) activity in FaDu cell lysate; format: cell-based; details: 6 h, 0.25% DMSO, versus untreated control (DMSO)
# Method: FaDu cells were seeded onto 6-well tissue culture plates at a density of 5 × 10^5 cells per well and incubated overnight to allow for cell attachment. Following the incubation period, the cells were treated with the selected compounds dissolved in tissue culture medium containing 0.25% DMSO and incubated for an additional 6 h. After the treatment, the medium was aspirated, and the cells were washed twice with phosphate-buffered saline (PBS) to remove residual compounds. The cells were then trypsinized for 10 min to detach them from the culture surface. Following trypsinization, the cells were collected by centrifugation, washed with ice-cold PBS to remove any residual trypsin, and resuspended in 0.5 mL of ice-cold PBS. The cell suspension was then subjected to sonication on ice for disruption. After sonication, the samples were centrifuged at 10,000× g for 10 min at 4 °C to remove cell debris. The resulting supernatant was carefully collected for the subsequent assessment of SOD activity. The activity of superoxide dismutase (SOD) was determined by using a commercial colorimetric assay kit (Superoxide Dismutase (SOD) Colorimetric Activity Kit, Catalog Number EIASODC) (Invitrogen, ThermoFisher Scientific, Waltham, MA, USA) following the manufacturer’s instructions.
# E. coli AR-0001 [3] = assay: Broth microdilution MIC, E. coli AR-0001; format: cell-based; details: Escherichia coli, AR0001; multidrug-resistant, KPC-3; CAMHB, 18 ± 2 h; read-out: minimal inhibitory concentration (MIC) E. coli AR-0001
# HEK293 cells = assay: MTT dose-response IC50, HEK293 cells; format: cell-based; details: non-cancerous HEK293 cells, 24 h
# Method: (§3) FaDu cells were obtained from the American Type Culture Collection (Rockville, MD, USA). HEK293 cells were kindly provided by Dr. Iliev lab at the Jill Roberts Institute for Inflammatory Bowel Disease, Weill Cornel Medicine of Cornel University (New York, NY, USA). All cells were cultivated in Dulbecco’s Modified Eagle Medium/Nutrient Mixture F-12 (DMEM/F-12) (Gibco, Waltham, MA, USA), 10% fetal bovine serum (FBS) (Gibco, Waltham, MA, USA), 100 U/mL penicillin, and 100 μg/mL streptomycin (P/S) (Gibco, Waltham, MA, USA). Culturing conditions were maintained at 37 °C in a humidified atmosphere containing 5% CO2. The culture medium was refreshed every 2–3 days, and cells were passaged upon reaching 70–80% confluence.
# (§4) The in vitro inhibitory effects of the compounds were assessed by using the MTT assay. Briefly, cells were plated in 96-well plates at a density of 1 × 10⁴ cells per well. After the cells were allowed to adhere overnight at 37 °C in 5% CO₂, they were treated with compounds at a concentration of 100 µM in triplicate. Following a 20 h incubation, the MTT reagent was added, and the cells were further incubated for 4 h. The resulting formazan was solubilized in anhydrous DMSO, and absorbance was measured at 570 nm by using a microplate reader. Cell viability was calculated by using the following formula: ([AE − AB]/[AC − AB]) × 100%, where AE, AC, and AB represent the absorbance values of experimental samples, untreated controls, and blank wells, respectively. Data analysis was performed by using GraphPad Prism or QuickCalcs.
# (§5) The data were fitted to a nonlinear regression model (GraphPad Prism version 9.0, GraphPad Software, San Diego, CA, USA) to calculate the IC50 values for each compound tested in triplicate.
# FaDu cells [4] = assay: MTT dose-response IC50, FaDu cells; format: cell-based; details: 0–100 µM, 24 h
# Method: as §3, §4, §5
# K. pneumoniae AR-0003 [5] = assay: Broth microdilution MIC, K. pneumoniae AR-0003; format: cell-based; details: Klebsiella pneumoniae, AR0003; KPC-3; CAMHB, 18 ± 2 h; read-out: minimal inhibitory concentration (MIC) K. pneumoniae AR-0003
# E. faecalis AR-0671 = assay: Broth microdilution MIC, E. faecalis AR-0671; format: cell-based, Enterococcus faecalis; details: CAMHB; for MIC: Enterococcus faecalis, AR0671, 18 ± 2 h, read-out: minimal inhibitory concentration (MIC) E. faecalis AR-0671
# Source text: as §1, §2
# FaDu cells [6] = assay: Hydrogen peroxide production assay in FaDu cells; format: cell-based; details: 6 h, 0.25% DMSO, versus untreated control
# Method: FaDu cells were seeded on the 6-well plates and incubated with the compounds as described before. After incubation, cells were cooled down on ice, washed two times with ice-cold PBS, and scraped in PBS. Cells were centrifuged at 10,000× g for 10 min at 4 °C, the supernatant was discarded, and 650 µL of ice-cold PBS was added. Cells were sonicated and centrifuged at 10,000× g for 10 min at 4 °C to remove cell debris. The resulting supernatant was carefully collected for subsequent hydrogen peroxide analysis by using a commercial kit (Pierce™ Quantitative Peroxide Assay Kit (Aqueous), Catalog number 23280) (Invitrogen, ThermoFisher Scientific, Waltham, MA, USA).
# S. aureus TCH 1516 [7] = assay: Broth microdilution MIC, S. aureus TCH 1516; format: cell-based; details: Staphylococcus aureus, MRSA / USA300, mecA MRSA isolate, USA300 lineage; CAMHB, 18 ±; read-out: minimal inhibitory concentration (MIC) S. aureus TCH 1516
# FaDu cells [8] = assay: MTT cell viability at fixed 100 µM, FaDu cells; format: cell-based; details: 24 h, described in words (Figure 2)
# Method: Test compounds 2–25 were dissolved in hybridoma-grade dimethyl sulfoxide (Millipore, Sigma, Burlington, MA, USA) to prepare stock solutions at concentrations of 10–25 mg/mL. […] For in vitro anticancer activity screening, the compounds were thawed at room temperature, protected from light, and the aliquots were diluted in complete cell culture media to achieve a final concentration of 100 µM and used for the in vitro assays. The cytotoxicity assays were performed in triplicate.
# as §3, §4
# S. aureus TCH 1516 [9] = assay: Broth microdilution MIC, S. aureus TCH 1516; format: cell-based, Staphylococcus aureus; details: mecA MRSA isolate, USA300 lineage; CAMHB, 18 ± 2 h
# Source text: as §1, §2
# E. coli AR-0001 [10] = assay: Broth microdilution MIC, E. coli AR-0001; format: cell-based, Escherichia coli; details: multidrug-resistant, KPC-3; CAMHB
# Source text: as §1, §2
# K. pneumoniae AR-0003 [11] = assay: Broth microdilution MIC, K. pneumoniae AR-0003; format: cell-based, Klebsiella pneumoniae; details: KPC-3; CAMHB
# Source text: as §1, §2
# P. aeruginosa AR-1114 [12] = assay: Broth microdilution MIC, P. aeruginosa AR-1114; format: cell-based, Pseudomonas aeruginosa; details: IMP-15; CAMHB
# Source text: as §1, §2
SMILES,MIC (A. baumannii AR-0273) [µg/mL],MIC (P. aeruginosa AR-1114 [1]) [µg/mL],SOD activity (U/mL of cell lysate) (FaDu cells [2]),MIC (E. coli AR-0001 [3]) [µg/mL],IC50 (HEK293 cells; Homo sapiens) [µM],IC50 (FaDu cells [4]; Homo sapiens) [µM],MIC (K. pneumoniae AR-0003 [5]) [µg/mL],MIC (E. faecalis AR-0671) [µg/mL],hydrogen peroxide levels (optical density at 525 nm) (FaDu cells [6]),MIC (S. aureus TCH 1516 [7]) [µg/mL],post-treatment viability (MTT assay) (FaDu cells [8]),minimal inhibitory concentration (MIC) S. aureus TCH 1516 (S. aureus TCH 1516 [9]) [µg/mL],minimal inhibitory concentration (MIC) A. baumannii AR-0273 (A. baumannii AR-0273) [µg/mL],minimal inhibitory concentration (MIC) E. coli AR-0001 (E. coli AR-0001 [10]) [µg/mL],minimal inhibitory concentration (MIC) K. pneumoniae AR-0003 (K. pneumoniae AR-0003 [11]) [µg/mL],minimal inhibitory concentration (MIC) E. faecalis AR-0671 (E. faecalis AR-0671) [µg/mL],minimal inhibitory concentration (MIC) P. aeruginosa AR-1114 (P. aeruginosa AR-1114 [12]) [µg/mL],IC50 (HEK293 cells) [µM],IC50 (FaDu cells [4]) [µM]
"O=C1CCN(c2cccc(O)c2)C(=O)N1 [Compound 5, 1-(3-Hydroxyphenyl)dihydropyrimidine-2,4(1H,3H)-dione]",> 64,> 64,significantly higher,> 64,41.8,9.9,> 64,32,significantly higher,16,–,–,–,–,–,–,–,–,–
O=C(CCN(CCC(=O)N/N=C1\C(=O)Nc2ccccc21)c1cccc(O)c1)N/N=C1\C(=O)Nc2ccccc21 [Compound 25],> 64,> 64,significantly higher; also recorded: highest SOD activity,64,11.7,5.28,> 64,16,significantly higher,32,most promising reduction in cell viability,–,–,–,–,–,–,–,–
"O=C(O)CCN(CCC(=O)O)c1cccc(O)c1 [Compound 2, 3,3′-((3-Hydroxyphenyl)azanediyl)dipropionic Acid]",> 64,> 64,–,> 64,–,–,> 64,> 64,–,> 64,minimal cytotoxicity,>64,>64,>64,>64,>64,>64,–,–
"O=C1CCN(c2cccc(O)c2)C(=S)N1 [Compound 6, 1-(3-Hydroxyphenyl)-2-thioxotetrahydropyrimidin-4(1H)-one]",> 64,> 64,significantly higher,> 64,22.6,13.4,> 64,32,significantly higher,8,most promising reduction in cell viability,16,–,–,–,–,–,–,–
"N.N.[Cl][Pt][Cl] [CP, Cisplatin, reference compound]",–,–,–,–,–,–,–,–,lower level of hydrogen peroxide production than the tested compounds,–,–,–,–,–,–,–,–,15.9,16.3
"COc1cccc2c1C(=O)c1c(O)c3c(c(O)c1C2=O)C[C@@](O)(C(=O)CO)C[C@@H]3O[C@H]1C[C@H](N)[C@H](O)[C@H](C)O1 [DOX, doxorubicin hydrochloride, reference compound]",–,–,–,–,–,1.81,–,–,significant increase,–,–,–,–,–,–,–,–,–,–
